Results taken from PubChem BioAssay AID248 (DTP/NCI, 2004).
Where “and” joins values, the source holds several entries; their conditions need not be identical. Equal entries are not always repeated. Inconclusive results and toxic doses are left out. Cut-off read from the data, not from the text of the source: active = T/C of 150% or more; inactive = T/C below 125%.

System: L1210 leukemia ip in BDF1 mice, survival T/C
Assay: NCI In Vivo Anticancer Drug Screen. Data for tumor model L1210 Leukemia (intraperitoneal) in B6D2F1 (BDF1) mice
Settings: endpoint: mean survival time, higher = longer survival
Outline: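 Survival endpoint. Drug-treated group vs vehicle group, expressed as T divided by C. Tumor passaged by transplantation.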

[1] = dose: 25.0 mg/kg/injection, schedule: Q01DX009 (ip), vehicle: saline
[2] = dose: 50.0 mg/kg/injection, schedule: Q01DX009 (ip), vehicle: saline
[3] = dose: 100.0 mg/kg/injection, schedule: Q04DX003 (ip), vehicle: saline
[4] = dose: 100.0 mg/kg/injection, schedule: Q04DX002 (ip), vehicle: saline with Tween-80
[5] = dose: 200.0 mg/kg/injection, schedule: Q04DX002 (ip), vehicle: saline with Tween-80
[6] = dose: 25.0 mg/kg/injection, schedule: Q01DX009 (ip), vehicle: Klucel (hydroxypropylcellulose) (HPC)
[7] = dose: 50.0 mg/kg/injection, schedule: Q01DX009 (ip), vehicle: Klucel (hydroxypropylcellulose) (HPC)
[8] = dose: 100.0 mg/kg/injection, schedule: Q01DX009 (ip), vehicle: Klucel (hydroxypropylcellulose) (HPC)
[9] = dose: 100.0 mg/kg/injection, schedule: Q04DX003 (ip), vehicle: Klucel (hydroxypropylcellulose) (HPC)
[10] = dose: 200.0 mg/kg/injection, schedule: Q01DX009 (ip), vehicle: Klucel (hydroxypropylcellulose) (HPC)
[11] = dose: 200.0 mg/kg/injection, schedule: Q04DX003 (ip), vehicle: Klucel (hydroxypropylcellulose) (HPC)
[12] = dose: 400.0 mg/kg/injection, schedule: Q04DX003 (ip), vehicle: Klucel (hydroxypropylcellulose) (HPC)
[13] = dose: 200.0 mg/kg/injection, schedule: Q04DX003 (ip), vehicle: saline
[14] = dose: 400.0 mg/kg/injection, schedule: Q04DX003 (ip), vehicle: saline
[15] = dose: 100.0 mg/kg/injection, schedule: Q04DX003 (ip), vehicle: saline with Tween-80
[16] = dose: 200.0 mg/kg/injection, schedule: Q04DX003 (ip), vehicle: saline with Tween-80
[17] = dose: 400.0 mg/kg/injection, schedule: Q04DX003 (ip), vehicle: saline with Tween-80
[18] = dose: 50.0 mg/kg/injection, schedule: Q01DX001 (ip), vehicle: carboxymethylcellulose (CMC)
[19] = dose: 100.0 mg/kg/injection, schedule: Q01DX001 (ip), vehicle: carboxymethylcellulose (CMC)
[20] = dose: 200.0 mg/kg/injection, schedule: Q01DX001 (ip), vehicle: carboxymethylcellulose (CMC)
[21] = dose: 400.0 mg/kg/injection, schedule: Q01DX001 (ip), vehicle: carboxymethylcellulose (CMC)
[22] = dose: 100.0 mg/kg/injection, schedule: Q01DX001 (ip), vehicle: saline
[23] = dose: 200.0 mg/kg/injection, schedule: Q01DX001 (ip), vehicle: saline
[24] = dose: 400.0 mg/kg/injection, schedule: Q01DX001 (ip), vehicle: saline
[25] = dose: 100.0 mg/kg/injection, schedule: Q04DX002 (ip), vehicle: Klucel (hydroxypropylcellulose) (HPC)
[26] = dose: 200.0 mg/kg/injection, schedule: Q04DX002 (ip), vehicle: Klucel (hydroxypropylcellulose) (HPC)
[27] = dose: 400.0 mg/kg/injection, schedule: Q04DX002 (ip), vehicle: Klucel (hydroxypropylcellulose) (HPC)
[28] = dose: 100.0 mg/kg/injection, schedule: Q01DX001 (ip), vehicle: saline with Tween-80
[29] = dose: 200.0 mg/kg/injection, schedule: Q01DX001 (ip), vehicle: saline with Tween-80
[30] = dose: 400.0 mg/kg/injection, schedule: Q01DX001 (ip), vehicle: saline with Tween-80
[31] = dose: 100.0 mg/kg/injection, schedule: Q01DX009 (ip), vehicle: saline with Tween-80
[32] = dose: 200.0 mg/kg/injection, schedule: Q01DX009 (ip), vehicle: saline with Tween-80
[33] = dose: 400.0 mg/kg/injection, schedule: Q01DX009 (ip), vehicle: saline with Tween-80
[34] = dose: 100.0 mg/kg/injection, schedule: Q01DX009 (ip), vehicle: saline
[35] = dose: 200.0 mg/kg/injection, schedule: Q01DX009 (ip), vehicle: saline
[36] = dose: 400.0 mg/kg/injection, schedule: Q01DX009 (ip), vehicle: saline

Measured: T/C

CN(C)C1CC[N-]CC1.CN(C)C1CC[N-]CC1.[Cl][Pt+2][Cl]
inactive: [1] 110 % of control | [2] 110 % of control | [3] 92 % of control

CC(C)=CCC/C(C)=C/COC(N)=O
inactive: [4] 100 % of control and 101 % of control | [5] 100 % of control and 99 % of control

N#C/C(N)=C(\C#N)N=CC=N/C(C#N)=C(/N)C#N
inactive: dose: 12.5 mg/kg/injection, schedule: Q01DX009 (ip), vehicle: Klucel (hydroxypropylcellulose) (HPC) 103 % of control | [6] 103 % of control | [7] 103 % of control | dose: 100.0 mg/kg/injection, schedule: Q01DX001 (ip), vehicle: Klucel (hydroxypropylcellulose) (HPC) 95 % of control

Cc1ccc(N(N)c2ccc(C)cc2)cc1
inactive: [8] 98 % of control | [9] 100 % of control | [10] 98 % of control | [11] 97 % of control | [12] 100 % of control

CC12OC3C4C(=O)OC1C1OC4(C)C3C(=O)OC12
inactive: [3] 102 % of control | [13] 97 % of control | [14] 95 % of control

O=[N+]([O-])c1ccc2c(c1)P(=O)(O)c1cc([N+](=O)[O-])ccc1-2
inactive: dose: 75.0 mg/kg/injection, schedule: Q01DX001 (ip), vehicle: saline 96 % of control | dose: 150.0 mg/kg/injection, schedule: Q01DX001 (ip), vehicle: saline 95 % of control | dose: 300.0 mg/kg/injection, schedule: Q01DX001 (ip), vehicle: saline 98 % of control

O=C(c1ccc(-c2ccccc2)cc1)C1CC1
inactive: [8] 97 % of control | [10] 97 % of control | dose: 400.0 mg/kg/injection, schedule: Q01DX009 (ip), vehicle: Klucel (hydroxypropylcellulose) (HPC) 91 % of control

CCCN(CCC)C(=O)c1cccnc1
inactive: [15] 93 % of control | [16] 96 % of control | [17] 94 % of control

COc1ccc(CN2CCCN(Cc3ccc(OC)cc3OC)C2c2cccc([N+](=O)[O-])c2O)c(OC)c1
inactive: [18] 104 % of control | [19] 98 % of control | [20] 110 % of control | [21] 98 % of control

CC(=O)OC1COC(SSC2OCC(OC(C)=O)C(OC(C)=O)C2OC(C)=O)C(OC(C)=O)C1OC(C)=O (stereo not given)
inactive: [22] 89 % of control | [23] 89 % of control | [24] 101 % of control

O=C(Nc1ncc([N+](=O)[O-])s1)c1ccccc1Oc1ccccc1
inactive: [25] 102 % of control | [26] 115 % of control | [27] 100 % of control

CCCCCCCCCCCCNc1ccccn1
inactive: [15] 88 % of control | [16] 94 % of control | [17] 96 % of control

O=C(O)c1ccc[nH]c1=O
inactive: [28] 97 % of control | [29] 95 % of control | [30] 98 % of control

CCS(=O)(=O)c1ccc(NC(=O)Oc2cc(C)ccc2C(C)C)cc1
inactive: [19] 91 % of control | [20] 96 % of control | [21] 94 % of control

CC(=O)OCCc1nnnn1C
inactive: [22] 108 % of control | [23] 104 % of control | [24] 103 % of control

O=C(O)/C(Cc1cn[nH]n1)=N\O
inactive: dose: 100.0 mg/kg/injection, schedule: Q01DX001 (ip), vehicle: other 95 % of control | dose: 200.0 mg/kg/injection, schedule: Q01DX001 (ip), vehicle: other 101 % of control | dose: 400.0 mg/kg/injection, schedule: Q01DX001 (ip), vehicle: other 101 % of control

CC(=O)OCC(O)C(O)C(O)C(O)CO (stereo not given)
inactive: [15] 91 % of control | [16] 94 % of control | [17] 91 % of control

O=C(Nc1ccc(Cl)cc1)Oc1ccc(C2CCCCC2)cc1
inactive: [25] 100 % of control | [26] 107 % of control | [27] 110 % of control

COC(=O)c1ccccc1NCCCC(=O)O
inactive: [31] 97 % of control | [15] 103 % of control | [32] 97 % of control | [16] 97 % of control | [33] 102 % of control | [17] 98 % of control

Cc1ccc(S(=O)(=O)CCCCCl)cc1
inactive: [22] 101 % of control | [34] 100 % of control | [3] 95 % of control | [23] 96 % of control | [35] 97 % of control | [13] 92 % of control | [24] 104 % of control | [36] 89 % of control | [14] 98 % of control

O=C(Nc1cc(Cl)cc(Cl)c1)C(Cl)Cl
inactive: [18] 117 % of control | [19] 109 % of control | [20] 105 % of control | [21] 109 % of control

O=C(O)CS(=O)(=O)CC(=O)O
inactive: [15] 98 % of control | [16] 93 % of control

COc1ccc(NC(=O)Nc2nccs2)c(OC)c1
inactive: [34] 104 % of control | [35] 102 % of control | [36] 105 % of control

COc1ccc(-c2sc(/N=C/c3ccc(N(C)CCC#N)cc3)c(C#N)c2C)cc1OC
inactive: [28] 100 % of control | [4] 103 % of control and 118 % of control | [15] 102 % of control and 91 % of control | [29] 91 % of control | [5] 93 % of control and 96 % of control | [16] 95 % of control and 98 % of control | [30] 100 % of control | dose: 400.0 mg/kg/injection, schedule: Q04DX002 (ip), vehicle: saline with Tween-80 104 % of control and 106 % of control | [17] 102 % of control and 91 % of control

CC(c1ccccc1)N(N=O)C(=O)c1ccc2ccccc2c1 (stereo not given)
inactive: dose: 17.0 mg/kg/injection, schedule: Q04DX002 (ip), vehicle: saline 94 % of control | dose: 33.0 mg/kg/injection, schedule: Q04DX002 (ip), vehicle: saline 105 % of control | dose: 66.0 mg/kg/injection, schedule: Q04DX002 (ip), vehicle: saline 97 % of control

N#Cc1cc2c(N)[nH]nc2nc1N
inactive: [6] 89 % of control | [7] 93 % of control | [8] 86 % of control and 90 % of control | [9] 98 % of control | [11] 95 % of control | [12] 101 % of control

S=C([SH2+])[SH2+].S=C([SH2+])[SH2+].[Pt+2].c1ccc(C[P+](c2ccccc2)(c2ccccc2)c2ccccc2)cc1
inactive: dose: 12.5 mg/kg/injection, schedule: Q01DX009 (ip), vehicle: saline 96 % of control | [1] 97 % of control

c1c[nH]cn1
inactive: [2] 93 % of control | [34] 101 % of control and 90 % of control | [3] 97 % of control | [35] 96 % of control and 90 % of control | [13] 97 % of control | [36] 103 % of control | [14] 94 % of control

CCC/C=C(\C)CCCC
inactive: [22] 97 % of control | [23] 99 % of control | [24] 95 % of control

CCCCn1c(C)cc2c(c1=O)COC(=O)C2CC (stereo not given)
inactive: dose: 2.5 mg/kg/injection, schedule: Q04DX003 (ip), vehicle: saline 100 % of control | dose: 5.0 mg/kg/injection, schedule: Q04DX003 (ip), vehicle: saline 100 % of control | dose: 10.0 mg/kg/injection, schedule: Q04DX003 (ip), vehicle: saline 95 % of control | dose: 20.0 mg/kg/injection, schedule: Q04DX003 (ip), vehicle: saline 97 % of control | dose: 40.0 mg/kg/injection, schedule: Q04DX003 (ip), vehicle: saline 94 % of control | dose: 80.0 mg/kg/injection, schedule: Q04DX003 (ip), vehicle: saline 95 % of control

C/C=C(\C)C(=O)Nc1cccc(OC(=O)NC)c1
inactive: [31] 91 % of control | [32] 88 % of control | [33] 91 % of control
